Data taken from ChEMBL document CHEMBL4049417, “Design and synthesis of novel 6-aryl substituted 4-anilinequinazoline derivatives as potential PI3Kδ inhibitors” (Bioorg Med Chem Lett, 2017).

Key:
[1] = Antiproliferative activity against human RPMI8266 cells after 72 hrs by MTT assay; type: functional, cell-based; conditions: RPMI8266, 72 h
Ramos = test: Antiproliferative activity against human Ramos cells after 72 hrs by MTT assay; type: functional, cell-based
[2] = target: PI3-kinase p110-delta/p85-alpha (Homo sapiens) (UniProt P27986+O00329); test: Inhibition of PI3K p110delta/p85alpha (unknown origin) at 100 nM using lipid substrate after 40 mins by kinase-glo luminescence assay relative to control; type: protein-complex assay
Raji = test: Antiproliferative activity against human Raji cells after 72 hrs by MTT assay; type: functional, cell-based
[3] = target: PI3-kinase p110-delta/p85-alpha (Homo sapiens, UniProt O00329); test: Inhibition of PI3K p110delta/p85alpha (unknown origin) using lipid substrate after 40 mins by kinase-glo luminescence assay; type: protein-complex assay
Chain of PI3-kinase p110-delta/p85-alpha (P27986 whole entry): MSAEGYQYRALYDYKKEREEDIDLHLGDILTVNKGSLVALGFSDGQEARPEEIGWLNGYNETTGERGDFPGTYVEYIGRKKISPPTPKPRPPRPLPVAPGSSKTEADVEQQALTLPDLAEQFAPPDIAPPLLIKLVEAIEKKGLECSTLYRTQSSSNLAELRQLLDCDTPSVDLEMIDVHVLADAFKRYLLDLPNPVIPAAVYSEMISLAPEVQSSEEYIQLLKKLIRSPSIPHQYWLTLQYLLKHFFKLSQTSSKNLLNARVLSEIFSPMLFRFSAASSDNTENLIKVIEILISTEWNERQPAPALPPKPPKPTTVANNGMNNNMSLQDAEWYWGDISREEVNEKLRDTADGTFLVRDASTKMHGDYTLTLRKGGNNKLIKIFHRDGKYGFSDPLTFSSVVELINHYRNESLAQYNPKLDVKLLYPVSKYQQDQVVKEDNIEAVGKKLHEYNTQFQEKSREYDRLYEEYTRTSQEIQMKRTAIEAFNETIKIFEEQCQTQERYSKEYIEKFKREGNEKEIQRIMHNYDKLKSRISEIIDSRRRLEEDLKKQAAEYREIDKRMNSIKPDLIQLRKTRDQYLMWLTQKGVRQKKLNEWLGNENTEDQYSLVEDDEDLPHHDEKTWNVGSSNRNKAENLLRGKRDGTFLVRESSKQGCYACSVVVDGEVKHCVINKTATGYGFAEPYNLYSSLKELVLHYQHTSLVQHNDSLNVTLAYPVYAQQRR
Chain of PI3-kinase p110-delta/p85-alpha (O00329 whole entry): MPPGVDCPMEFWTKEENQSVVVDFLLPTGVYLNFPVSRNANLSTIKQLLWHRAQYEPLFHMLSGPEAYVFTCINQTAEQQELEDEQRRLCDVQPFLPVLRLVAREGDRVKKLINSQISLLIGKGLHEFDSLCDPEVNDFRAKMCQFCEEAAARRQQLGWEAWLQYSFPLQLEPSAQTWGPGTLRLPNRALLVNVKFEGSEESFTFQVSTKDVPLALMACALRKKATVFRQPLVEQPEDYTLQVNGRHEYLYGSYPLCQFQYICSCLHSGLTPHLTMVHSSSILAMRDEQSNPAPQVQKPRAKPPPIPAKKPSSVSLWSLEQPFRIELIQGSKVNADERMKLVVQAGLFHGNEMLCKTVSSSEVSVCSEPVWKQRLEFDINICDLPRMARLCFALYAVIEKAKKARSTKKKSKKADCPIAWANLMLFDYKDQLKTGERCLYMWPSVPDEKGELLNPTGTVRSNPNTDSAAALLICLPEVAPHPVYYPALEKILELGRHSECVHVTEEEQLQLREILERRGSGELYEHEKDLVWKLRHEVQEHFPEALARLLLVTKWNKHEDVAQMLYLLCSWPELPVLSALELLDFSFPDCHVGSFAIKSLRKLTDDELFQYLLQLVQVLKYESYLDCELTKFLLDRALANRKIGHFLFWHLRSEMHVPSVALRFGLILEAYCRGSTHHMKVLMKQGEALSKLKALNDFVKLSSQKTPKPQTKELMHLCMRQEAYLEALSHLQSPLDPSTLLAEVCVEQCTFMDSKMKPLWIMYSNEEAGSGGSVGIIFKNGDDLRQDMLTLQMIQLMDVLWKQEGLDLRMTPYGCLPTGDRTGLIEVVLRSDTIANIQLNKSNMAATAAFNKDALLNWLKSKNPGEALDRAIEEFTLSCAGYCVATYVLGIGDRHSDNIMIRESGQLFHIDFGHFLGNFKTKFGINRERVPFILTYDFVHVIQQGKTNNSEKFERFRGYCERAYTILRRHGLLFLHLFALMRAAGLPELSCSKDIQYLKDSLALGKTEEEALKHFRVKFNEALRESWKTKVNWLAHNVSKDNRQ

IC50 (Ramos) | inhibition [2] | IC50 (Raji) | IC50 [3] | Structure (SMILES) | IC50 [1]
> 10 µM | 96% | 9.95 µM |  | CC[C@H](Nc1ncnc2[nH]cnc12)c1nc2cccc(F)c2c(=O)n1-c1ccccc1 [IDELALISIB] | 5.49 µM
 | 33% |  |  | COc1ccc(-c2ccc3ncnc(Nc4cccc(C(=O)N5CCN(C)CC5)c4)c3c2)cc1C(N)=O | 
 | 49% |  |  | COc1c(C(N)=O)cc(-c2ccc3ncnc(Nc4cccc(C(=O)N5CCOCC5)c4)c3c2)cc1[N+](=O)[O-] | 
1.06 µM | 91% | 0.95 µM | 9.7 nM | NC(=O)c1cc(-c2ccc3ncnc(Nc4cccc(C(=O)N5CCOCC5)c4)c3c2)cc(C(F)(F)F)c1 | 1.1 µM
 | 23% |  |  | COc1ccc(-c2ccc3nccc(Nc4cccc(C(=O)N5CCN(C)CC5)c4)c3c2)cn1 | 
 | 61% |  |  | COc1ccc(-c2ccc3ncnc(Nc4ccc(C(=O)N5CCOCC5)cc4)c3c2)cn1 | 
 | 0% |  |  | COc1ccc(-c2ccc3ncnc(Nc4ccc(C(=O)N5CCOCC5)cc4)c3c2)cc1C(N)=O | 
 | 0% |  |  | COc1ccc(-c2ccc3nccc(Nc4cccc(C(=O)N5CCN(C)CC5)c4)c3c2)cc1C(N)=O | 
 | 21% |  |  | COc1ccc(-c2ccc3ncnc(Nc4cccc(C(=O)N5CCOCC5)c4)c3c2)cc1C(N)=O | 
 | 61% |  |  | COc1cc(C(N)=O)cc(-c2ccc3ncnc(Nc4cccc(C(=O)N5CCOCC5)c4)c3c2)c1 | 
> 10 µM | 93% | > 10 µM | 9.3 nM | COc1ncc(-c2ccc3ncnc(Nc4cccc(C(=O)N5CCOCC5)c4)c3c2)cc1C#N | 6.61 µM
 | 71% |  |  | COc1ccc(-c2ccc3ncnc(Nc4cccc(C(=O)N5CCN(C)CC5)c4)c3c2)cn1 | 
 | 12% |  |  | COc1ccc(-c2ccc3ncnc(Nc4ccc(C(=O)N5CCN(C)CC5)cc4)c3c2)cc1C(N)=O | 
 | 87% |  |  | COc1ccc(-c2ccc3ncnc(Nc4cccc(C(=O)N5CCOCC5)c4)c3c2)cn1 | 
